According to patent US10149476B2, “Pesticidal plant extract containing loline derivatives” (GRASSLANZ TECHNOLOGY LTD, priority 2007, dated 2018):
Values joined by “and” are separate entries in the source; they are usually repeats but may differ in a detail not shown here. Identical values can stand only once.

How the values were obtained:
[1] = Uptake of pyrrolizidine alkaloids into endophyte free Ryegrass plants after watering composition onto roots; format: in vivo; conditions: leaf sub-sample after 21 days; for Pyrrolizidine Alkaloid Content, Average: average of 5 endophyte free Ryegrass plants, Grinding Number 1 composition watered on roots; for Pyrrolizidine Alkaloid Content: individual endophyte free Ryegrass plants 1-5, 100 ml Grinding Number 1 composition watered on roots every second day
Procedure: (§1) Pesticidal composition from Grinding Number 1 of Example 1 was watered onto the roots of endophyte free Fescue and Ryegrass plants grown in a glasshouse under controlled conditions into silica sand filled pots. Control plants were included in the plant samples and were watered with nil endophyte ground extract containing no pesticidal composition. Trial plants were each watered with 100 ml of each composition every second day with nutrient watered on alternate days. After 21 days, a sub-sample of leaf material was analysed to determine the uptake of pesticidal composition into the plants tested.
(§2) The results shown below in Table 2 for endophyte free Fescue plants and Table 3 for endophyte free Ryegrass plants clearly indicate transfer of the measured pyrrolizidine alkaloid compounds from the composition and into the plants via their root system

[2] = Uptake of pyrrolizidine alkaloids into cabbage plants grown in silica sand; format: in vivo, Cabbage brassica; conditions: cabbage treated with composition of Grind Number 3 watered onto pots
Procedure: Cabbage brassica were tested with the pesticidal composition of Grind Number 3 of Example 1 watered onto the pots in which the trial cabbage plants were grown in silica sand.

[3] = Uptake of pyrrolizidine alkaloids into endophyte free Fescue plants after watering composition onto roots; format: in vivo; conditions: leaf sub-sample after 21 days; for Pyrrolizidine Alkaloid Content, Average: average of 5 endophyte free Fescue plants, Grinding Number 1 composition watered on roots; for Pyrrolizidine Alkaloid Content: individual endophyte free Fescue plants 1-5, 100 ml Grinding Number 1 composition watered on roots every second day
Procedure: as §1, §2

## CC(=O)N(C)[C@@H]1[C@H]2[C@@H]3CCN2C[C@H]1O3 [NAL, N-acetylloline]
[1]
  Pyrrolizidine Alkaloid Content, Average: 92 mg/kg or ppm
  Pyrrolizidine Alkaloid Content: 40 mg/kg or ppm and 37 mg/kg or ppm and 214 mg/kg or ppm and 87 mg/kg or ppm and 84 mg/kg or ppm
[2]
  Pyrrolizidine Alkaloid Content: 6 mg/kg or ppm
[3]
  Pyrrolizidine Alkaloid Content, Average: 75 mg/kg or ppm
  Pyrrolizidine Alkaloid Content: 56 mg/kg or ppm and 38 mg/kg or ppm and 119 mg/kg or ppm and 69 mg/kg or ppm and 95 mg/kg or ppm

## CC(=O)N[C@H]1[C@H]2[C@@H]3CCN2C[C@H]1O3 [NANL, N-acetylnorloline]
[1]
  Pyrrolizidine Alkaloid Content, Average: 14 mg/kg or ppm
  Pyrrolizidine Alkaloid Content: 0 mg/kg or ppm (3×) and 44 mg/kg or ppm and 27 mg/kg or ppm
[2]
  Pyrrolizidine Alkaloid Content: 0 mg/kg or ppm
[3]
  Pyrrolizidine Alkaloid Content, Average: 0 mg/kg or ppm
  Pyrrolizidine Alkaloid Content: 0 mg/kg or ppm

## CN(C=O)C1C2[C@@H]3CCN2C[C@H]1O3 (stereo partly drawn) [NFL, N-formylloline]
[1]
  Pyrrolizidine Alkaloid Content, Average: 644 mg/kg or ppm
  Pyrrolizidine Alkaloid Content: 352 mg/kg or ppm and 340 mg/kg or ppm and 1152 mg/kg or ppm and 697 mg/kg or ppm and 680 mg/kg or ppm
[2]
  Pyrrolizidine Alkaloid Content: 148 mg/kg or ppm
[3]
  Pyrrolizidine Alkaloid Content, Average: 479 mg/kg or ppm
  Pyrrolizidine Alkaloid Content: 405 mg/kg or ppm and 382 mg/kg or ppm and 648 mg/kg or ppm and 479 mg/kg or ppm and 482 mg/kg or ppm
